Measurements taken from patent US20250057883A1, “CONTROLLABLE STIMULATION OF GENETICALLY ENGINEERED LYMPHOCYTES FOR THE TREATMENT OF CANCER” (THE TRUSTEES OF THE UNIVERSITY OF PENNSYLVANIA, priority 2021, published 2025).
Entries after “also recorded” stand apart in the source; their conditions may differ.

Columns and labels:
Human T cells = test: T cell expansion after MV pseudotyped lentiviral transduction with mbIL15; format: cell-based
Excerpt: FIGS. 1A-1E: Transgenic IL15 and IL15Ra-IL15 expression to enhances T cell proliferation. Human T cells were transduced with a measles virus (MV) pseudotyped lentiviral vector redirected specifically against human CD4, encoding the NGFR reporter alone (“no IL15 construct”), soluble IL15 along with the reporter, or membrane-bound IL15 along with the reporter. Transduction is shown in FIG. 1B, where the transgene is detected using a co-expressed reporter molecule (tNGFR). Quantification of soluble IL15 is depicted in FIG. 1C. No additional cytokine or stimulation signals were provided to the cells. Tcells express transgenic IL15 and IL15Ra-IL15. […].
IL15 is a homeostatic cytokine that is required for the maintenance of CD8+ memory Tcells and NK cells, and promotes anti-tumor activity. IL15 signals through the IL15 receptor which is composed of a specific alpha chain (IL15Rα or IL15Ra) along with the shared IL2Rb and common gamma chain. Previous work has shown that a membrane bound version of IL15 (mbIL15) can be created by fusing IL15 directly to IL15Rα via a flexible linker that promotes IL15 signaling to the expressing cell (PMID: 27849617, US 2016/0158285 A1) (SEQ ID NO: 1,see Table 1). Herein, it was shown that incorporating mbIL15 in the lentiviral transfer genome increases CAR-T cell numbers 10-fold in vitro (FIGS. 1A-1D). […]

[1] = molecular target: thrombopoietin receptor (TPOR) (UniProt P40238); test: cell-based or functional assay
TPO-R = molecular target: T1, TPO-R (Homo sapiens, UniProt P40238); conditions: CART cells transduced with TPO-R; cited from earlier work
T1 construct: host or cells: CAR T cells transduced with TPO-R by other groups
T1 sequence (P40238 26-635): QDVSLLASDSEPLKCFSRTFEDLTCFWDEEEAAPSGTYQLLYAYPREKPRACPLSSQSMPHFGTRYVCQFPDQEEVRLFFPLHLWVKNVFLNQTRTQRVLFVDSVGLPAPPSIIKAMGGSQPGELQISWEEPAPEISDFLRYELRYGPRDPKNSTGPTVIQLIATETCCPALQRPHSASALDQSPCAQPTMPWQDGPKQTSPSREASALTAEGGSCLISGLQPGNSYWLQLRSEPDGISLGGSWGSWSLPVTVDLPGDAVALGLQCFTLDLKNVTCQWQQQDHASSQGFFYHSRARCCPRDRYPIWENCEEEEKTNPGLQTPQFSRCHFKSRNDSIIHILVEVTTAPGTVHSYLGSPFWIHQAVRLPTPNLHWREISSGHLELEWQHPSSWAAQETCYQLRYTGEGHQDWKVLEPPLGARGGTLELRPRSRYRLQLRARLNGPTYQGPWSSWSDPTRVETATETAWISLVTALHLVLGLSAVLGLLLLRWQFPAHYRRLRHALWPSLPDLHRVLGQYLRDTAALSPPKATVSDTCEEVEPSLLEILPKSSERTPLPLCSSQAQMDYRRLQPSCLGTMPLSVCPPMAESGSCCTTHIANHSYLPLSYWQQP

STAT3 and STAT5 = test: Phosphorylation of STAT3 and STAT5 in TPOR expressing T cells, flow cytometry; format: cell-based, human; conditions: 0.1 μg/ml, 24 hours
Procedure: (§1) FIG. 5: TPOR stimulation leads to activation of STAT3 and STAT5. Healthy donor Tcells expressing TPOR or untransduced control T cells were stimulated for 24 hours with 5 ng/ml IL-2/IL-7/IL-15 (CK), 0.1 μg/ml TPO or 0.1 μg/ml Eltrombopag (EP). Following stimulation cells were fixed and the phosphorylation of STAT3 and STAT5 quantified using flow cytometry.
as §1, with “TPOR” for “FIG. 5: TPOR”, “stimulation led” for “stimulation leads”, “and STAT5 (FIG. 5).” for “and STAT5.”, “donor T cells” for “donor Tcells”, “μg/ml TPO,” for “μg/ml TPO”

[2] = test system: T cells expressing the truncated NGFR; test: Stimulation of negative control T cells (truncated NGFR) for 7 days, flow cytometry; format: cell-based, human; conditions: 0.1 μg/ml, FIG. 3 top
Procedure: (§2) FIG. 3: T cells transduced to express (i) the thrombopoietin receptor (TPOR) or (ii) the GCF receptor with a deletion at aa 715 (GCSFRd715) are active and can drive T cell proliferation via the non-canonical JAK2 pathway. T cells expressing GCSFRd715, TPOR, or the truncated NGFR as a control were stimulated for 7 days with IL-2/IL-7/IL-15 (all at 5 ng/ml; denoted as CK; positive control condition), 0.1 μg/ml recombinant thrombopoietin (TPO), 0.1 μg/ml TPO agonist eltrombopag (EP), or 0.1 μg/ml GCSF. Cell number (top) or percent transgenic cells (bottom) were quantified using flow cytometry at 7 days.
(§3) Healthy donor T cells were transduced to express (i) the thrombopoietin receptor (TPOR) or (ii) the GCF receptor with a deletion at aa 715 (GCSFRd715). T cells expressing GCSFRd715, TPOR, or the truncated NGFR as a control were stimulated for 7 days with IL-2/IL-7/IL-15 (all at 5 ng/ml; denoted as CK; positive control condition), 0.1 μg/ml recombinant thrombopoietin (TPO), 0.1 μg/ml TPO agonist eltrombopag (EP), or 0.1 μg/ml GCSF. Cell number (FIG. 3, top) or percent transgenic cells (FIG. 3, bottom) were quantified using flow cytometry at 7 days.

T cells expressing TPOR = test: Stimulation of T cells expressing TPOR for 7 days, flow cytometry; format: cell-based, human; conditions: 0.1 μg/ml; for TPOR fraction after addition: enriched from 12.9%, FIG. 4 bottom panel
Procedure: as §2
(§4) FIG. 4: Exemplary flow cytometry plots showing that exposure of transgenic cytokine receptor transduced cells to the cognate cytokine (i.e. GCSFRd715 to GCSF; TPOR to TPO or EP) leads to enrichment of CAR expressing cells at 7 days. Addition of GCSF enriched the GCSRFd715 transgenic cell fraction from 15.6% to 64.9% (top panel). Addition of TPO enriched the TPOR fraction from 12.9% to 82% and addition of EP enriched the TPOR fraction from 12.9% to 55.9% (bottom panel).
as §3

[3] = test system: T cells transduced with reporter+TPO-R; test: Expansion of TPO-R transduced T cells in vitro; format: cell-based, human; conditions: transduced using the MV pseudotyped lentivector; FIG. 2D
Excerpt: FIGS. 2A-2D: Transgenic TPO-R enables controllable T cell expansion. T cells were transduced with the reporter NGFR, or with reporter+the thrombopoietin receptor (TPOR) and stimulated with eltrombopag, a specific small molecule agonist of TPOR, in vitro. FIG. 2A: Cell number is shown to increase only in the presence of the TPOR agonist. […] FIG. 2C: All cells that express the reporter (tNGFR) also express the TPO receptor.
Recombinant erythropoietin (Epo) and G-CSF are commercially approved for the treatment for anemia of chronic kidney disease, and for chemotherapy-related neutropenia, respectively. Clinical development of a recombinant thrombopoietin (TPO) was superseded by two TPO receptor (TPO-R, also known as c-Mpl) peptidomimetic drugs that are now approved for the treatment of immune thrombocytopenic purpura (romiplostim, and eltrombopag). […] Results of the TPO-R experiments were recapitulated herein (FIGS. 2A-2D). T cells were transduced with the reporter NGFR, or with reporter+TPO-R and stimulated with eltrombopag, a specific small molecule agonist of TPOR, in vitro. […] In FIG. 2C, it is shown that there is a 1:1 expression of the reporter NGFR with the TPO receptor after 12 days of eltrombopag treatment.

[4] = molecular target: GCF receptor with a deletion at aa 715 (GCSFRd715) (UniProt Q99062); test: cell-based or functional assay
GCF receptor with a deletion at aa 715 (GCSFRd715), sequence (Q99062 25-715 limits assumed, stated change not applied): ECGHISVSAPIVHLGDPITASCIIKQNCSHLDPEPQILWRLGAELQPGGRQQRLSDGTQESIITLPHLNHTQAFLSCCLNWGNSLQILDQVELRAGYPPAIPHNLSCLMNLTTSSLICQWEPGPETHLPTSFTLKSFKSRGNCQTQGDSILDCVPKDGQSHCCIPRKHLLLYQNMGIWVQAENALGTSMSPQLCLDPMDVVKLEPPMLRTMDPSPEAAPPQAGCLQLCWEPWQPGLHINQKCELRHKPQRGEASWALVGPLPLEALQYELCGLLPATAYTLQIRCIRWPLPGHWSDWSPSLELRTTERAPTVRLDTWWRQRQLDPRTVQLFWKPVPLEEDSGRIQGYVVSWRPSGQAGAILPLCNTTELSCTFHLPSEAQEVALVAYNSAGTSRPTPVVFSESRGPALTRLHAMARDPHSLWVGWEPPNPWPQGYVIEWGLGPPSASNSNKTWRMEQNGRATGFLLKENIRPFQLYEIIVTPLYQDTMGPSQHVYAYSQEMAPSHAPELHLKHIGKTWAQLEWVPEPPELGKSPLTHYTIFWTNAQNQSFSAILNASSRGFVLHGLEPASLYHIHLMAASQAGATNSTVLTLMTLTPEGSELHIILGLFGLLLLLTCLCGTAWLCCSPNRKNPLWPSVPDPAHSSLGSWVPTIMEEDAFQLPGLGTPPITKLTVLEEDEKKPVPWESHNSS

[5] = molecular target: T2, interleukin-6 receptor (IL-6R) (Homo sapiens, UniProt P08887); conditions: following CAR T-cell infusion; cited from earlier work
T2 construct: endogenous in cells; host or cells: subjects with cytokine release syndrome (in vivo)
T2 sequence (P08887 20-468): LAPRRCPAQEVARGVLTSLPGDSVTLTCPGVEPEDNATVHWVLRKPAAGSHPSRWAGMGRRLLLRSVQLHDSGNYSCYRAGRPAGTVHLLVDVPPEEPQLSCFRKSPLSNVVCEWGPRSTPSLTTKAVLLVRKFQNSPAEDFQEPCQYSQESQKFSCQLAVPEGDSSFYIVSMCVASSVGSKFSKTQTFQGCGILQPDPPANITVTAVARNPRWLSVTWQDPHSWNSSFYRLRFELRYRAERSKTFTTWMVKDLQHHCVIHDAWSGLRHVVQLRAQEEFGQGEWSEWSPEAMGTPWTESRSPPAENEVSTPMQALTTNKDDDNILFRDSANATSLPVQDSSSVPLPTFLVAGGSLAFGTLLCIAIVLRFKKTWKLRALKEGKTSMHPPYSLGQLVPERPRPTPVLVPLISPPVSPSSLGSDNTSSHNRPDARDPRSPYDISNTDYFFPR

[6] = test system: T cells expressing GCSFRd715; test: Stimulation of T cells expressing GCSFRd715 for 7 days, flow cytometry; format: cell-based, human
Procedure: as §2, §4, §3

Question: With “mbIL15: membrane bound version of IL15: IL15 fused directly to IL15Rα via a flexible linker (SEQ ID NO: 1)” as the molecule, how does the “increase of CAR-T cell numbers” value (Human T cells; in vitro, mbIL15 in the lentiviral transfer genome) read?
Answer: Its value is 10 fold.

Question: What about the “cell number (expansion)” value (Human T cells; no additional cytokine or stimulation signals, FIG. 1D) of the same molecule?
Answer: The value was “superior expansion”.

Question: For “recombinant thrombopoietin (TPO) (from UniProt P40225 22-353) (ligand)”, which transgenic cell fraction after 7 days (flow cytometry) [1] is on record?
Answer: The transgenic cell fraction after 7 days (flow cytometry) was 82%.

Question: What does the source list for thrombopoietin [TPO]?
Answer: proliferation and anti-tumor functions (TPO-R): superior proliferation and anti-tumor functions; phosphorylation of STAT3 and STAT5 (STAT3 and STAT5): leads to STAT5 and STAT3 phosphorylation; also recorded: lead to the expected STAT5 and STAT3 phosphorylation; response to stimulation (cell number) [2]: did not respond; TPOR fraction after addition (T cells expressing TPOR): 82%; response to stimulation (cell number) (T cells expressing TPOR; TPOR cells, FIG. 3 top): responded; expansion of non-activated (resting) cells [3]: led to expansion; also recorded: expand selectively

Question: For `CC1=NN(c2ccc(C)c(C)c2)C(=O)/C1=N\Nc1cccc(-c2cccc(C(=O)O)c2)c1O` [EP, eltrombopag, reference compound], which “TPOR fraction after addition” value (T cells expressing TPOR) is on record?
Answer: The value was 55.9%.

Question: Which transgenic cell fraction after 7 days (flow cytometry) [4] does the source give for “Granulocyte Colony Stimulating Factor (G-CSF) (from UniProt P09919 31-204) (ligand)” here?
Answer: Its transgenic cell fraction after 7 days (flow cytometry) is 64.9%.

Question: With “tocilizumab: humanized monoclonal antibody against the interleukin-6 receptor (IL-6R)” as the molecule, how does the “reversal of CRS” value [5] read?
Answer: The value was “near-immediate reversal of CRS”.

B1: GCSF: Granulocyte Colony Stimulating Factor, cognate cytokine of GCSFRd715 (protein)
chain: TPLGPASSLPQSFLLKCLEQVRKIQGDGAALQEKLCATYKLCHPEELVLLGHSLGIPWAPLSSCPSQALQLAGCLSQLHSGLFLYQGLLQALEGISPELGPTLDTLQLDVADFATTIWQQMEELGMAPALQPTQGAMPAFASAFQRRAGGVLVASHLQSFLEVSYRVLRHLAQP
Question: Which “GCSFRd715 transgenic cell fraction after addition” value ([6]; 0.1 μg/ml, enriched from 15.6%, FIG. 4 top panel) does the source give for B1 here?
Answer: The value was 64.9%.

Question: What about the “response to stimulation (cell number)” value ([6]; GCSFRd715 cells, 0.1 μg/ml, FIG. 3 top) of the same molecule?
Answer: The value was “responded”.

Question: And the “relative enrichment of transgenic cells (percent transgenic cells)” value ([6]; GCSFRd715 cells, FIG. 3 bottom)?
Answer: The value was “Relative enrichment”.

Question: And the “response to stimulation (cell number)” value [2]?
Answer: The value was “did not respond”.
